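Results reflect a 48-hour exposure of cells in 96-well plates to compound at five concentrations. Definition used: TGI = concentration required for complete inhibition of growth.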 *1 amine or outer side, *2 acyl side, *3 side chain or, on linkers, in order; H or OH if unused. Where a SMILES comes first, the peptide text is derived from it. [ ]: non-standard residue; d: D form. X32 = C[C@H](N[*:1])C(=O)C(C)(C)C(=O)[*:2]; Hmpa(2S,3S) = CC[C@H](C)[C@H](O)C(=O)O; NMeY = CN[C@@H](Cc1ccc(O)cc1)C(=O)O; NMeL = CN[C@@H](CC(C)C)C(=O)O; NMeV = CN[C@H](C(=O)O)C(C)C; βAla = NCCC(=O)O
Experiments:
Test in all cases: NCI-60 cell line screen, 48 h
OVCAR-5 ovarian = test system: OVCAR-5 ovarian
OVCAR-3 ovarian = test system: OVCAR-3 ovarian
SNB-75 CNS = test system: SNB-75 CNS
T-47D breast = test system: T-47D breast
RPMI-8226 leukemia = test system: RPMI-8226 leukemia
786-0 renal = test system: 786-0 renal
ACHN renal = test system: ACHN renal
MDA-MB-435 = test system: MDA-MB-435
MALME-3M melanoma = test system: MALME-3M melanoma
MDA-MB-231 breast = test system: MDA-MB-231 breast
SN12C renal = test system: SN12C renal

SMILES | TGI (OVCAR-5 ovarian) [µM] | TGI (OVCAR-3 ovarian) [µM] | TGI (SNB-75 CNS) [µM] | TGI (T-47D breast) [µM] | TGI (RPMI-8226 leukemia) [µM] | TGI (786-0 renal) [µM] | TGI (ACHN renal) [µM] | TGI (MDA-MB-435) [µM] | TGI (MALME-3M melanoma) [µM] | TGI (MDA-MB-231 breast) [µM] | TGI (SN12C renal) [µM]
O=C(O)CN1C(=O)C(Cc2ccc(O)cc2)N=C(c2cccc(O)c2)c2ccccc21 (centres undefined) | > 100 | > 100 | > 100 | > 100 | > 100 | > 100 | > 100 | > 100 | > 100 | > 100 | 34.8
CC[C@H](C)[C@@H]1OC(=O)CCNC(=O)[C@@H](C)NC(=O)C(C)(C)C(=O)[C@H](C)NC(=O)[C@H](Cc2ccc(OC)cc2)N(C)C(=O)[C@H](C(C)C)N(C)C(=O)CNC(=O)[C@H](CC(C)C)N(C)C(=O)CNC1=O (cyclo(G[NMeL]G[NMeV][NMeY](Me)[X32][dA][βAla][Hmpa(2S,3S)])) | > 31.2 | 14.3 | 3.52 | > 50 | 11.1 | 12.7 | > 38 | > 42.7 | 10.3 | 11.2 | > 50
O=C1Oc2cc(O)cc(/C=C/c3ccc(O)cc3)c2[C@@]12c1c(O)cc(O)cc1OC2c1cccc(O)c1 (some centres undefined) | 92.4 | > 100 | > 100 | > 100 | 37.1 | 59.7 | > 100 | 66.1 | > 100 | 95.9 | 78
CC(=O)Nc1c(C)cc2c(nc3n2CCC3O)c1[N+](=O)[O-] (centres undefined) | > 100 | > 100 | > 100 | > 100 | > 100 | > 100 | > 100 | > 100 | > 100 | > 100 | > 100

Source: PubChem BioAssay (NCI)
